Test results from patent US20180036289A1 (Gilead Sciences, Inc., priority 2016, published 2018).

Legend:
Experiment in all cases: Cell proliferation assay (ATPlite), drug with vs without cobicistat
Format in all cases: cell-based
769-P = 769-P cell line; 120 hours incubation
In short: (§1)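 Luminescent ATP readout (ATPlite 1Step), 10 min dark incubation. Exposure: 120 h, 37 °C, humidified 5% CO2. Concentrations: 3.16×10^−5 to 3.16×10^−9 M, 3.16-fold apart.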

A-172 = A-172 cell line; 120 hours incubation
In short: as §1

A375 = A375 cell line; 120 hours incubation
In short: as §1

ACHN = ACHN cell line; 120 hours incubation
In short: as §1

AN3 CA = AN3 CA cell line; 120 hours incubation
In short: as §1

AU-565 = AU-565 cell line; 120 hours incubation
In short: as §1

AsPC-1 = AsPC-1 cell line; 120 hours incubation
In short: as §1

BT-20 = BT-20 cell line; 120 hours incubation
In short: as §1

C-33 A = C-33 A cell line; 120 hours incubation
In short: as §1

CAL 27 = CAL 27 cell line; 120 hours incubation
In short: as §1

CCRF-CEM = CCRF-CEM cell line; 120 hours incubation
In short: as §1

DU 145 = DU 145 cell line; 120 hours incubation
In short: as §1

HCT 116 = HCT 116 cell line; 120 hours incubation
In short: as §1

HCT-15 = HCT-15 cell line; 120 hours incubation
In short: as §1

J82 = J82 cell line; 120 hours incubation
In short: as §1

KU812 = KU812 cell line; 120 hours incubation
In short: as §1

LNCaP FGC = LNCaP FGC cell line; 120 hours incubation
In short: as §1

LoVo = LoVo cell line; 120 hours incubation
In short: as §1

MCF7 = MCF7 cell line; 120 hours incubation
In short: as §1

MG-63 = MG-63 cell line; 120 hours incubation
In short: as §1

NCI-H82 = NCI-H82 cell line; 120 hours incubation
In short: as §1

RT4 = RT4 cell line; 120 hours incubation
In short: as §1

SJCRH30 = SJCRH30 cell line; 120 hours incubation
In short: as §1

SK-N-FI = SK-N-FI cell line; 120 hours incubation
In short: as §1

SNU-C2B = SNU-C2B cell line; 120 hours incubation
In short: as §1

SW480 = SW480 cell line; 120 hours incubation
In short: as §1

SW48 = SW48 cell line; 120 hours incubation
In short: as §1

SW620 = SW620 cell line; 120 hours incubation
In short: as §1

U-87 MG = U-87 MG cell line; 120 hours incubation
In short: as §1

VA-ES-BJ = VA-ES-BJ cell line; 120 hours incubation
In short: as §1

Compound: Cc1nc(Nc2ncc(C(=O)Nc3c(C)cccc3Cl)s2)cc(N2CCN(CCO)CC2)n1 [dasatinib]
- Fold change in IC50 (IC50 [Drug + Cobicistat]/IC50 [Drug]) (769-P): 3.8 fold
- Fold change in IC50 (IC50 [Drug + Cobicistat]/IC50 [Drug]) (A-172): 1.7 fold
- Fold change in IC50 (IC50 [Drug + Cobicistat]/IC50 [Drug]) (A375): 1.3 fold
- Fold change in IC50 (IC50 [Drug + Cobicistat]/IC50 [Drug]) (ACHN): 2.8 fold
- Fold change in IC50 (IC50 [Drug + Cobicistat]/IC50 [Drug]) (AN3 CA): 1.2 fold
- Fold change in IC50 (IC50 [Drug + Cobicistat]/IC50 [Drug]) (AU-565): 8.4 fold
- Fold change in IC50 (IC50 [Drug + Cobicistat]/IC50 [Drug]) (AsPC-1): 1.2 fold
- Fold change in IC50 (IC50 [Drug + Cobicistat]/IC50 [Drug]) (BT-20): 1.4 fold
- Fold change in IC50 (IC50 [Drug + Cobicistat]/IC50 [Drug]) (C-33 A): 1.2 fold
- Fold change in IC50 (IC50 [Drug + Cobicistat]/IC50 [Drug]) (CAL 27): 1.3 fold
- Fold change in IC50 (IC50 [Drug + Cobicistat]/IC50 [Drug]) (CCRF-CEM): 1.3 fold
- Fold change in IC50 (IC50 [Drug + Cobicistat]/IC50 [Drug]) (DU 145): 3.6 fold
- Fold change in IC50 (IC50 [Drug + Cobicistat]/IC50 [Drug]) (HCT 116): 3.4 fold
- Fold change in IC50 (IC50 [Drug + Cobicistat]/IC50 [Drug]) (HCT-15): 2.6 fold
- Fold change in IC50 (IC50 [Drug + Cobicistat]/IC50 [Drug]) (J82): 2.1 fold
- Fold change in IC50 (IC50 [Drug + Cobicistat]/IC50 [Drug]) (KU812): 1.5 fold
- Fold change in IC50 (IC50 [Drug + Cobicistat]/IC50 [Drug]) (LNCaP FGC): 1.3 fold
- Fold change in IC50 (IC50 [Drug + Cobicistat]/IC50 [Drug]) (LoVo): 1.0 fold
- Fold change in IC50 (IC50 [Drug + Cobicistat]/IC50 [Drug]) (MCF7): 1.9 fold
- Fold change in IC50 (IC50 [Drug + Cobicistat]/IC50 [Drug]) (MG-63): 2.9 fold
- Fold change in IC50 (IC50 [Drug + Cobicistat]/IC50 [Drug]) (NCI-H82): 1.1 fold
- Fold change in IC50 (IC50 [Drug + Cobicistat]/IC50 [Drug]) (RT4): 2.5 fold
- Fold change in IC50 (IC50 [Drug + Cobicistat]/IC50 [Drug]) (SJCRH30): 1.4 fold
- Fold change in IC50 (IC50 [Drug + Cobicistat]/IC50 [Drug]) (SK-N-FI): 2.0 fold
- Fold change in IC50 (IC50 [Drug + Cobicistat]/IC50 [Drug]) (SNU-C2B): 0.9 fold
- Fold change in IC50 (IC50 [Drug + Cobicistat]/IC50 [Drug]) (SW480): 1.0 fold
- Fold change in IC50 (IC50 [Drug + Cobicistat]/IC50 [Drug]) (SW48): 2.2 fold
- Fold change in IC50 (IC50 [Drug + Cobicistat]/IC50 [Drug]) (SW620): 3.2 fold
- Fold change in IC50 (IC50 [Drug + Cobicistat]/IC50 [Drug]) (U-87 MG): 1.1 fold
- Fold change in IC50 (IC50 [Drug + Cobicistat]/IC50 [Drug]) (VA-ES-BJ): 3.1 fold

Compound: CC(=O)O[C@@]12CO[C@@H]1C[C@H](O)[C@@]1(C)C(=O)[C@H](O)C3=C(C)[C@@H](OC(=O)[C@H](O)[C@@H](NC(=O)OC(C)(C)C)c4ccccc4)C[C@@](O)([C@@H](OC(=O)c4ccccc4)[C@H]21)C3(C)C [docetaxel]
- Fold change in IC50 (IC50 [Drug + Cobicistat]/IC50 [Drug]) (769-P): 3.0 fold
- Fold change in IC50 (IC50 [Drug + Cobicistat]/IC50 [Drug]) (A-172): 2.0 fold
- Fold change in IC50 (IC50 [Drug + Cobicistat]/IC50 [Drug]) (A375): 2.8 fold
- Fold change in IC50 (IC50 [Drug + Cobicistat]/IC50 [Drug]) (ACHN): 4.6 fold
- Fold change in IC50 (IC50 [Drug + Cobicistat]/IC50 [Drug]) (AN3 CA): 2.1 fold
- Fold change in IC50 (IC50 [Drug + Cobicistat]/IC50 [Drug]) (AU-565): 3.2 fold
- Fold change in IC50 (IC50 [Drug + Cobicistat]/IC50 [Drug]) (AsPC-1): 5.0 fold
- Fold change in IC50 (IC50 [Drug + Cobicistat]/IC50 [Drug]) (BT-20): 1.7 fold
- Fold change in IC50 (IC50 [Drug + Cobicistat]/IC50 [Drug]) (C-33 A): 1.5 fold
- Fold change in IC50 (IC50 [Drug + Cobicistat]/IC50 [Drug]) (CAL 27): 1.4 fold
- Fold change in IC50 (IC50 [Drug + Cobicistat]/IC50 [Drug]) (CCRF-CEM): 3.6 fold
- Fold change in IC50 (IC50 [Drug + Cobicistat]/IC50 [Drug]) (DU 145): 4.8 fold
- Fold change in IC50 (IC50 [Drug + Cobicistat]/IC50 [Drug]) (HCT 116): 1.9 fold
- Fold change in IC50 (IC50 [Drug + Cobicistat]/IC50 [Drug]) (HCT-15): 2.8 fold
- Fold change in IC50 (IC50 [Drug + Cobicistat]/IC50 [Drug]) (J82): 3.5 fold
- Fold change in IC50 (IC50 [Drug + Cobicistat]/IC50 [Drug]) (KU812): 5.6 fold
- Fold change in IC50 (IC50 [Drug + Cobicistat]/IC50 [Drug]) (LNCaP FGC): 3.8 fold
- Fold change in IC50 (IC50 [Drug + Cobicistat]/IC50 [Drug]) (LoVo): 2.0 fold
- Fold change in IC50 (IC50 [Drug + Cobicistat]/IC50 [Drug]) (MCF7): 4.1 fold
- Fold change in IC50 (IC50 [Drug + Cobicistat]/IC50 [Drug]) (MG-63): 3.3 fold
- Fold change in IC50 (IC50 [Drug + Cobicistat]/IC50 [Drug]) (NCI-H82): 2.2 fold
- Fold change in IC50 (IC50 [Drug + Cobicistat]/IC50 [Drug]) (RT4): 4.4 fold
- Fold change in IC50 (IC50 [Drug + Cobicistat]/IC50 [Drug]) (SJCRH30): 4.1 fold
- Fold change in IC50 (IC50 [Drug + Cobicistat]/IC50 [Drug]) (SK-N-FI): 5.1 fold
- Fold change in IC50 (IC50 [Drug + Cobicistat]/IC50 [Drug]) (SNU-C2B): 4.8 fold
- Fold change in IC50 (IC50 [Drug + Cobicistat]/IC50 [Drug]) (SW480): 2.3 fold
- Fold change in IC50 (IC50 [Drug + Cobicistat]/IC50 [Drug]) (SW48): 1.6 fold
- Fold change in IC50 (IC50 [Drug + Cobicistat]/IC50 [Drug]) (SW620): 2.7 fold
- Fold change in IC50 (IC50 [Drug + Cobicistat]/IC50 [Drug]) (U-87 MG): 2.0 fold
- Fold change in IC50 (IC50 [Drug + Cobicistat]/IC50 [Drug]) (VA-ES-BJ): 5.0 fold

Compound: COc1cccc2c1C(=O)c1c(O)c3c(c(O)c1C2=O)C[C@@](O)(C(=O)CO)C[C@@H]3O[C@H]1C[C@H](N)[C@H](O)[C@H](C)O1 [doxorubicin]
- Fold change in IC50 (IC50 [Drug + Cobicistat]/IC50 [Drug]) (769-P): 5.1 fold
- Fold change in IC50 (IC50 [Drug + Cobicistat]/IC50 [Drug]) (A-172): 2.5 fold
- Fold change in IC50 (IC50 [Drug + Cobicistat]/IC50 [Drug]) (A375): 2.2 fold
- Fold change in IC50 (IC50 [Drug + Cobicistat]/IC50 [Drug]) (ACHN): 2.2 fold
- Fold change in IC50 (IC50 [Drug + Cobicistat]/IC50 [Drug]) (AN3 CA): 2.0 fold
- Fold change in IC50 (IC50 [Drug + Cobicistat]/IC50 [Drug]) (AU-565): 2.1 fold
- Fold change in IC50 (IC50 [Drug + Cobicistat]/IC50 [Drug]) (AsPC-1): 1.3 fold
- Fold change in IC50 (IC50 [Drug + Cobicistat]/IC50 [Drug]) (BT-20): 1.0 fold
- Fold change in IC50 (IC50 [Drug + Cobicistat]/IC50 [Drug]) (C-33 A): 1.9 fold
- Fold change in IC50 (IC50 [Drug + Cobicistat]/IC50 [Drug]) (CAL 27): 1.9 fold
- Fold change in IC50 (IC50 [Drug + Cobicistat]/IC50 [Drug]) (CCRF-CEM): 2.7 fold
- Fold change in IC50 (IC50 [Drug + Cobicistat]/IC50 [Drug]) (DU 145): 2.1 fold
- Fold change in IC50 (IC50 [Drug + Cobicistat]/IC50 [Drug]) (HCT 116): 1.8 fold
- Fold change in IC50 (IC50 [Drug + Cobicistat]/IC50 [Drug]) (HCT-15): 2.0 fold
- Fold change in IC50 (IC50 [Drug + Cobicistat]/IC50 [Drug]) (J82): 2.2 fold
- Fold change in IC50 (IC50 [Drug + Cobicistat]/IC50 [Drug]) (KU812): 2.9 fold
- Fold change in IC50 (IC50 [Drug + Cobicistat]/IC50 [Drug]) (LNCaP FGC): 1.8 fold
- Fold change in IC50 (IC50 [Drug + Cobicistat]/IC50 [Drug]) (LoVo): 2.0 fold
- Fold change in IC50 (IC50 [Drug + Cobicistat]/IC50 [Drug]) (MCF7): 1.9 fold
- Fold change in IC50 (IC50 [Drug + Cobicistat]/IC50 [Drug]) (MG-63): 2.4 fold
- Fold change in IC50 (IC50 [Drug + Cobicistat]/IC50 [Drug]) (NCI-H82): 2.6 fold
- Fold change in IC50 (IC50 [Drug + Cobicistat]/IC50 [Drug]) (RT4): 2.7 fold
- Fold change in IC50 (IC50 [Drug + Cobicistat]/IC50 [Drug]) (SJCRH30): 2.2 fold
- Fold change in IC50 (IC50 [Drug + Cobicistat]/IC50 [Drug]) (SK-N-FI): 2.0 fold
- Fold change in IC50 (IC50 [Drug + Cobicistat]/IC50 [Drug]) (SNU-C2B): 1.2 fold
- Fold change in IC50 (IC50 [Drug + Cobicistat]/IC50 [Drug]) (SW480): 2.5 fold
- Fold change in IC50 (IC50 [Drug + Cobicistat]/IC50 [Drug]) (SW48): 1.8 fold
- Fold change in IC50 (IC50 [Drug + Cobicistat]/IC50 [Drug]) (SW620): 2.6 fold
- Fold change in IC50 (IC50 [Drug + Cobicistat]/IC50 [Drug]) (U-87 MG): 0.7 fold
- Fold change in IC50 (IC50 [Drug + Cobicistat]/IC50 [Drug]) (VA-ES-BJ): 2.8 fold
